Assay results as given in publication PMC5688144, “Assay interference and off-target liabilities of reported histone acetyltransferase inhibitors” (Nature Communications, 2017).
Where two headings read alike, the source gives them in different places.

How the values were obtained:
[1] = system: CBP; conditions: original report; 22 (Supplementary References); cited from earlier work
[2] = UPLC-MS gross compound stability in assay buffer; conditions: 25 mM sodium phosphate, pH 7.0, 30 °C, no GSH or CoA
Procedure: Select compounds were incubated up to 24 h for additional stability analyses. Chromatograms and mass spectra were qualitatively analyzed for the formation of new peaks and/or loss of parent peaks.

[3] = system: GCN5; conditions: cited from earlier work; for IC50: original report, 22 (Supplementary References)
[4] = Autofluorescence counter-screen; format: physicochemical; conditions: autofluorescence at eight fluorophore settings; 32 nM-100 μM compound
Procedure: Selected test compounds were assessed for autofluorescence using an adaption of published procedures. […] Final concentration of DMSO was constant at 1.0% (v/v). Compounds and fluorophore standards were transferred as 10 mM DMSO stock solutions to 384-well black polystyrene microplates via Echo 550 dispenser. The plate arrangement was purposefully designed to minimize optical crosstalk by fluorophore standards. All measurements were performed in ALARM NMR buffer (25 mM sodium phosphate, pH 7.0) at 25 °C. Aliquots of 20 μL buffer were dispensed into microplate wells via ThermoFisher Multidrop dispenser. Compounds were shaken for 1 min on a plate shaker, centrifuged briefly for 1 min at 1000×g, then allowed to incubate at RT in buffer for 10 min before measuring fluorescence intensity on a SpectraMax M3 plate reader under reduced lighting. […] Bandwidth filters were set to default mode. Fluorescence intensity was measured for each test compound using each of the eight fluorophore standard settings. Fluorophores present on each plate were then used to construct normalized fluorescence dose-responses (“fluorophore-equivalent concentrations”, FEC). Fluorescence intensity for each test compound was converted to the appropriate FEC.

[5] = Absorbance spectra; format: physicochemical; conditions: for Absorption max (nm) / Absorbance counter-screen: 25 mM sodium phosphate, pH 7.0; for Absorbance counter-screen: 300-750 nm; for Molar absorptivity: at absorption max
Procedure: Selected test compounds were assessed for absorption between 300 and 750 nm. Most compound absorption spectra were obtained at 100, 50, and 10 μM final compound concentrations in ALARM NMR buffer (25 mM sodium phosphate, pH 7.0). Final concentration of DMSO was constant at 2.0% (v/v). Compounds were allowed to incubate at RT in buffer for 10 min in UV-transparent polystyrene 384-well plates. Absorbance spectra were then obtained on a SpectraMax M3 or BMG Labtech CLARIOstar microplate reader at 25 °C. Significant absorbance was defined as molar absorptivity constants greater than 2000 M^−1 cm^−1 at wavelengths greater than 300 nm.

[6] = system: Tip60; conditions: cited from earlier work; for IC50: original report, 24 (Supplementary References)
[7] = system: p300/CBP; conditions: cited from earlier work
[8] = target: T1, PCAF (Homo sapiens, UniProt Q92831); conditions: cited from earlier work
T1 construct: Reaction Biology Corporation (assays run by this contract lab)

[9] = @ 25 µM, ref 13 (Supplementary References)
[10] = @ 200 µM, ref 19 (Supplementary References)
[11] = @ 100 µM, ref 25 (Supplementary References)

T1 sequence (Q92831 whole entry, species assumed): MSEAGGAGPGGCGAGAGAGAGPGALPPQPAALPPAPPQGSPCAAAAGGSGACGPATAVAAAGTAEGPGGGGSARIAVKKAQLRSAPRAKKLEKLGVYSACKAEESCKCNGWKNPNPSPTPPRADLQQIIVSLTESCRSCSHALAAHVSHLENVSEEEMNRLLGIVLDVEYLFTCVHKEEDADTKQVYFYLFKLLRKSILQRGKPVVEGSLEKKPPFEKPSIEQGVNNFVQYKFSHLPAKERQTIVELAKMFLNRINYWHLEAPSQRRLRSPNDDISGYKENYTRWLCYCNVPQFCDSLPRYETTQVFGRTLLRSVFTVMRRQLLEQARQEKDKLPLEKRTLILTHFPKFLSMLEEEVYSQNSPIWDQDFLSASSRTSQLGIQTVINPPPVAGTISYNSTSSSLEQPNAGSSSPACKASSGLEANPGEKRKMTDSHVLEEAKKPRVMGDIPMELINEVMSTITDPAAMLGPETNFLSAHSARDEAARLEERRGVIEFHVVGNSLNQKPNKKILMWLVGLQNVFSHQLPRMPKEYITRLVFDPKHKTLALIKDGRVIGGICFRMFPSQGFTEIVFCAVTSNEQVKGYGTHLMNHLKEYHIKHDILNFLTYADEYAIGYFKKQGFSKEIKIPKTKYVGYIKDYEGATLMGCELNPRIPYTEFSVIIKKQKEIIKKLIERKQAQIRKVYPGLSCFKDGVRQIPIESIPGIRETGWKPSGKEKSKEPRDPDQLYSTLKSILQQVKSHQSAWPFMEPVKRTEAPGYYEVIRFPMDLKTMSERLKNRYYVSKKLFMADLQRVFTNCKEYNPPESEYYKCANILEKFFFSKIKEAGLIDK

Compound	UPLC-MS buffer stability counter-screen [2]	Fluorescence counter-screen [4]	Absorption max (nm) [5]	Absorbance counter-screen [5]	Molar absorptivity [5]	further results
C=C1C(=O)O[C@H](CCC)[C@H]1C(=O)O [Compound 6, MB-3]	Grossly stable	Negative	Nominal	Negative		IC50 [1]: 500 µM; IC50 [3]: 100 µM
Clc1ccc(-c2csc(NN=C3CCCC3)n2)cc1 [Compound 7, CPTH2]	Gross degradation observed; loss of parent peak, appearance of new peaks	Negative	285 nm	Negative		IC50 [3]: ~500 µM
CCCCCCCCCCCC1=C(O)C(=O)C=C(O)C1=O [Compound 9, Embelin]	Grossly stable	Negative	315 nm	Flagged (Significant absorbance was defined as molar absorptivity constants greater than 2000 M^−1 cm^−1 at wavelengths greater than 300 nm)	21000 M⁻¹ cm⁻¹	% inhibition, Tip60 [6, 9]: 25%; % inhibition, p300/CBP [7, 9]: 25%
COc1cc(/C=C/C(=O)CC(=O)/C=C/c2ccc(O)c(OC)c2)ccc1O [Compound 11, Curcumin]	Gross degradation observed; loss of parent peak, appearance of new peaks	Negative	425 nm	Flagged (Significant absorbance was defined as molar absorptivity constants greater than 2000 M^−1 cm^−1 at wavelengths greater than 300 nm)	20000 M⁻¹ cm⁻¹	% inhibition, PCAF ([8]; @ 100 µM, ref 15 (Supplementary References)): < 10%
CCCCCCCCCCCCCCCc1cccc(O)c1C(=O)O [Compound 14, Anacardic acid]		Negative	305 nm	Negative		IC50 ([7]; original report, 27 (Supplementary References)): 8.5 µM
CCCCCCCc1ccc(CCc2cccc(O)c2C(=O)O)cc1 [Compound 15, MG 149]		Negative	300 nm	Negative		IC50 [6]: 74 µM; % inhibition, PCAF [8, 10]: 3%; % inhibition, p300/CBP [7, 10]: 30%
COc1cc(/C=C/c2cc(/C=C/c3ccc(O)c(OC)c3)n(-c3ccc(C(=O)[O-])cc3)n2)ccc1O.[Na+] [Compound 17, CTK7A]		Negative	325 nm	Flagged (Significant absorbance was defined as molar absorptivity constants greater than 2000 M^−1 cm^−1 at wavelengths greater than 300 nm)	30000 M⁻¹ cm⁻¹	% inhibition, GCN5 ([3]; @ 40 µM, ref 21 (Supplementary References)): 40%
Cl.Cl.O=C(O)Cn1nnc(-c2ccc(CN(CCCCOc3ccc(CN4CCCC4)cc3)CCc3ccccc3)cc2)n1 [Compound 20, TH1834]		Negative	Nominal	Negative		IC50 [6]: ~500 µM
CCCC1(c2ccccc2)NC(=O)N(CC(=O)N(C)Cc2c(F)cccc2Cl)C1=O (stereo not shown) [Compound 21, N-[(2-chloro-6-fluorophenyl)methyl]-2-(2,5-dioxo-4-phenyl-4-propylimidazolidin-1-yl)-N-methylacetamide]	Grossly stable	Negative	Nominal	Negative		% inhibition, GCN5 [3, 11]: < 25%; % inhibition, p300/CBP [7, 11]: < 25%
Plumbagin [Compound 8]	Grossly stable	Negative	420 nm	Flagged (Significant absorbance was defined as molar absorptivity constants greater than 2000 M^−1 cm^−1 at wavelengths greater than 300 nm)	3200 M⁻¹ cm⁻¹	% inhibition, PCAF ([8]; @ 50 µM, 23 (Supplementary References)): ~ 50%
